# Source: patent publication US12527773B2, “Flavi-block: a pan-flavivirus inhibitor” (Baden-Württemberg Stiftung GmbH, priority 2020, dated 2026)
# Read-outs that look alike come from different tables or passages of the source.
# Key:
# DEN1/2 = assay: IC50 in established virological assays (Table 1), DEN1/2; type: cell-based; settings: Dengue virus
# Excerpt: (§1) In summary, a set of C10 derivatives (FIG. 12) was designed, synthesized and tested against HCV (which is considered as an established system to monitor drug effects against Flaviviridae) as well as DENV for comprehensive structure-activity relationship (SAR) analysis and target validation.
# HBV = assay: IC50 in established virological assays (Table 1), HBV; type: cell-based, Hepatits B Virus
# Description: as §1, with “validation. IC50 and CC50 values for compound C10 were determined in established virological assays (Table 1). […] Further, said experiments underline the specificity of compound C10 for flaviviruses.” for “validation.”
# DENV3 = assay: Plaque assay of released virus, DENV3-infected Vero cells; type: cell-based; settings: Dengue virus
# Description: Vero cells were infected with DENV1-4 at an MOI of 1 for 2 h (post infection, p.i., (A)), after which virus was removed, and fresh maintenance medium containing 2% FCS together with the indicated concentration of C10 added. For co-treat condition (c.t., (B)), Vero cells were infected with DENV1-4 at an MOI of 1 in the presence of C10 for 2 h, followed by removal of the virus/C10 inoculums, and addition of fresh 2% fetal calf serum maintenance medium. […] Results represent the mean ±SD for duplicate wells from a single assay, representative of 2 independent experiments (cf. Tables 2A and 2B, infra, for pooled data).
# (§2) Vero and BHK-21 cells were maintained in DMEM media supplemented with 10% heat-inactivated FBS at 37° C. in a humidified incubator supplemented with 5% CO2; A549 cells were maintained in F-12K medium supplemented with 10% heat-inactivated Fetal Bovine Serum (FBS), 2 mM L-glutamine, 50 U/I penicillin, 0.05 mg/l streptomycin. […] Viral titer was subsequently determined by plaque assay (see below).
# Vero cells were seeded into 24-well plates at a density of 2×10^5 cells/well and grown overnight in culture medium at 37° C. with 5% CO2 prior to infection with RSV, KUNV, ZIKV as indicated. […] The stain was removed by rinsing the cells with tap water, and the viral plaques were counted visually. […]
# RSV [1] = assay: Plaque assay, RSV infection (A549 cells lysed at 22 h); type: cell-based; settings: human respiratory syncytial virus
# Description: as §2, with “streptomycin. DENV-1-4 strains, cell culture conditions and Gen-Bank accession numbers, as well as details of RSV strains and culture are known in the art.” for “streptomycin.”
# Vero cells were seeded into 24-well plates at a density of 2×10^5 cells/well and grown overnight in culture medium at 37° C. with 5% CO2 prior to infection with RSV, KUNV, ZIKV as indicated. BHK-21 cells were used for DENV1-4. The virus inoculum was removed and replaced with semisolid overlays of 0.8% aquacide II (Calbiochem) in DMEM+2% FBS, and the mixture was incubated at 37° C. with 5% CO2. After 3-5 days, the cells were fixed with neutral buffered formalin (Sigma) for 3 h at room temperature, rinsed with tap water, and stained with 1% crystal violet for 10 min. The stain was removed by rinsing the cells with tap water, and the viral plaques were counted visually. Dose-response curves were plotted from the plaque number versus the log of the concentration of the test compounds. […]
# RSV [2] = assay: RT-qPCR analysis of virus genomes, RSV; type: cell-based; settings: human respiratory syncytial virus, c.t., read-out: EC50 from RT-qPCR analysis
# Excerpt: Viral RNA was extracted using Isolate II RNA extraction kit (Bioline), and the absolute number of RNA copies determined by Taqman One Step RT-qPCR (Applied Biosystems) by extrapolation from a standard curve generated from in vitro—transcribed virus RNA.
# It was decided to test the ability of C10 to inhibit the flaviviruses DENV1-4, KUNV and ZIKV, in addition to the paramyxovirus RSV, as a control.
# DENV capsid protein = target: T1, DENV capsid protein (Dengue virus type 2, UniProt P29990); assay: Crosslinking of recombinant DENV capsid protein (Western blot); type: biochemical
# T1 construct: recombinant DENV capsid protein; made in house; host or cells: E. coli
# T1 sequence (P29990 1-100): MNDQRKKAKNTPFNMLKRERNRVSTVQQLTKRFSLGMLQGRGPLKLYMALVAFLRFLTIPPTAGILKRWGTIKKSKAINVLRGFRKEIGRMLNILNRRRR
# Excerpt: DSS was included as a positive control.
# [3] = Pharmacokinetic study in Balb/c mice, peroral administration; type: in vivo; settings: for Plasma concentration, Group A-D: single animals
# Description: Study design, animal selection, handling and treatment were all in accordance with the study protocols and institutional animal care and use guidelines. Male Balb/c mice (9-10 weeks old, body weight 22.3 to 38.1 g and average body weight across all groups 31.4 g, SD=3.20 g) were used in this study. The animals were randomly assigned to the treatment groups before the pharmacokinetic study; all animals were fasted for 4 h before dosing. Six time points for PO (15, 30, 60, 120, 240 and 360 min) and IV (5, 15, 30, 60, 120 and 240 min) routes were used in this pharmacokinetic study. Each of the PO and IV time point treatment groups included 4 animals. There was also control group of 2 animals. Dosing was done according to the treatment schedules outlined in Table 3. Mice were injected IV with 2,2,2-tribromoethanol at the dose of 150 mg/kg prior to taking blood. Blood collection was performed from the orbital sinus in microtainers containing K2EDTA. Animals were sacrificed by cervical dislocation after blood samples collection. All samples were immediately prepared, flash-frozen and stored at −70° C. until subsequent bioanalysis.
# Samples Processing Plasma samples ([…]) were mixed with […] of IS solution. After mixing by pipetting and centrifuging for 4 min at 6,000 rpm, […] of each supernatant was injected into LC-MS/MS system. Solution of compound IS-02-03 (200 ng/ml in acetonitrile-methanol mixture, 1:1, v/v) was used as internal standard (IS) for quantification of C10 in plasma samples. Samples Analysis The concentrations of C10 were determined using high performance liquid chromatography/tandem mass spectrometry (HPLC-MS/MS). Shimadzu H PLC system comprised of 2 isocratic pumps LC-10Advp, an autosampler SIL-HTc, a sub-controller FCV-14AH and a degasser DGU-14A. Mass spectrometric analysis was performed using an API 3000 (triple-quadrupole) instrument from AB Sciex (Canada) with an electro-spray (ESI) interface. The data acquisition and system control was performed using Analyst 1.5.2 software from AB Sciex. HPLC-MS/MS Conditions
# The pharmacokinetic data analysis was performed using non-compartmental, bolus injection or extravascular input analysis models in WinNonlin 5.2 (PharSight). Data below LLOQ were presented as missing to improve validity of T1/2 calculations. No outlier data points were removed from calculations. The bioavailability for the peroral route was calculated as: […]
smiles,measurement,setting,value
"CCN1/C(=C\C=C\c2sc3cc(NC(C)=O)ccc3[n+]2CC)Sc2cc(NC(C)=O)ccc21.[I-] [C10, 6-acetamido-2-((1E,3E)-3-(6-acetamido-3-ethylbenzo[d]thiazol-2(3H)-ylidene)prop-1-en-1-yl)-3-ethylbenzo[d]thiazol-3-ium iodide]",IC50,DEN1/2,110 to 180 nM
same,activity against Hepatits B Virus (HBV),HBV,inactive or has only minor activity
same,IC50,"HBV; Hepatitis B virus, HBV",> 10000 nM
same,EC50,"DENV3; read-out: EC50 from plaque assays, DENV3, c.t.",10 nM
same,EC50,"DENV3; read-out: EC50 from plaque assays, DENV3, p.i.",600 nM
same,EC50,"RSV [1]; c.t., read-out: EC50 from plaque assays",890 nM
same,EC50,"RSV [1]; co-added with virus (text, Tables 2A and 2B), read-out: EC50",~800 nM
same,EC50,RSV [2],830 ± 970 nM
same,effect on oligomerization state of DENV capsid protein,DENV capsid protein,"enhance the presence of dimers, tetramers and higher oligomeric states"
same,oral bioavailability,[3]; PO 10 mg/kg versus IV 5 mg/kg,zero
same,"Plasma concentration, Mean","[3]; PO 10 mg/kg, 15 min",0 ng(ml)
same,"Plasma concentration, Group A-D","[3]; PO 10 mg/kg, 15 min, below LLOQ 10 ng/ml designated as zero",0 ng(ml)
same,"Plasma concentration, Mean","[3]; PO 10 mg/kg, 30 min",0 ng(ml)
same,"Plasma concentration, Group A-D","[3]; PO 10 mg/kg, 30 min, below LLOQ designated as zero",0 ng(ml)
same,"Plasma concentration, Mean","[3]; PO 10 mg/kg, 60 min",0 ng(ml)
same,"Plasma concentration, Group A-D","[3]; PO 10 mg/kg, 60 min, below LLOQ designated as zero",0 ng(ml)
same,"Plasma concentration, Mean","[3]; PO 10 mg/kg, 120 min",0 ng(ml)
same,"Plasma concentration, Group A-D","[3]; PO 10 mg/kg, 120 min, below LLOQ designated as zero",0 ng(ml)
same,"Plasma concentration, Mean","[3]; PO 10 mg/kg, 240 min",0 ng(ml)
same,"Plasma concentration, Group A-D","[3]; PO 10 mg/kg, 240 min, below LLOQ designated as zero",0 ng(ml)
same,"Plasma concentration, Mean","[3]; PO 10 mg/kg, 360 min",0 ng(ml)
same,"Plasma concentration, Group A-D","[3]; PO 10 mg/kg, 360 min, below LLOQ designated as zero",0 ng(ml)
same,plasma levels following PO dosing,"[3]; PO 10 mg/kg, LLOQ 10 ng/ml",below the lower limit of quantitation
